# Measured values as given in US8324225B2, “Pyrrolopyrimidine compounds and their uses” (Novartis AG, priority 2006, dated 2012).
# Target: hCDK1/B (Homo sapiens, UniProt P06493)
# Assay: hCDK1/B
# Format: biochemical
# Settings: Table E; read-out: hCDK1/B/IC50 [umol l − 1]
# Chain of hCDK1/B (P06493 whole entry): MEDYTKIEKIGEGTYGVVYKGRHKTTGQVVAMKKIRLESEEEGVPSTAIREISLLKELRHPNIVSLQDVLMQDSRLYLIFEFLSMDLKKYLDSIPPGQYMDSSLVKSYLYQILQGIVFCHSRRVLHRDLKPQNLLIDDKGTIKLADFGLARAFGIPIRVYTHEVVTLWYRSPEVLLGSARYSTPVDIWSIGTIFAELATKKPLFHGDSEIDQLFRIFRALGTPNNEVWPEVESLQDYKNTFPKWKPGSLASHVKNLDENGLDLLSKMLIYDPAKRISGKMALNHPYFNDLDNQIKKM
# Chain of hCDK1/B (P14635 whole entry partner): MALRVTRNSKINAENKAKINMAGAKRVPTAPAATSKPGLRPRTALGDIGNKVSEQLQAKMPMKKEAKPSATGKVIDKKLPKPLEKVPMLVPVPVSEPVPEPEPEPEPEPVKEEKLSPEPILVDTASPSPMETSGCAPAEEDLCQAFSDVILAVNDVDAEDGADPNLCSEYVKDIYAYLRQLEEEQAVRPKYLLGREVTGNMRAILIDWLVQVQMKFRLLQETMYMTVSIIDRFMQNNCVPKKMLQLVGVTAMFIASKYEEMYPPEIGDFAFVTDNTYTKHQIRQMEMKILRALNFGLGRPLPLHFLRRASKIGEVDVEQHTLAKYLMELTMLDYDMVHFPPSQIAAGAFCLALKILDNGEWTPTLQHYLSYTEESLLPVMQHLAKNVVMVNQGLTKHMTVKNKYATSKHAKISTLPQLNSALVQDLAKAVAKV
row,SMILES,IC50 [µM]
1,Cc1cn(C2CCCC2)c2nc(Nc3ccc4[nH]ccc4c3)ncc12 [Example 282],> 15

# Target: CDK4 (Homo sapiens, UniProt P11802)
# Assay: CDK4 HTRF
# Format: biochemical
# Settings: Table E; read-out: CDK4 HTRF/IC50 [umol l − 1]
# Chain of CDK4 (P11802 whole entry): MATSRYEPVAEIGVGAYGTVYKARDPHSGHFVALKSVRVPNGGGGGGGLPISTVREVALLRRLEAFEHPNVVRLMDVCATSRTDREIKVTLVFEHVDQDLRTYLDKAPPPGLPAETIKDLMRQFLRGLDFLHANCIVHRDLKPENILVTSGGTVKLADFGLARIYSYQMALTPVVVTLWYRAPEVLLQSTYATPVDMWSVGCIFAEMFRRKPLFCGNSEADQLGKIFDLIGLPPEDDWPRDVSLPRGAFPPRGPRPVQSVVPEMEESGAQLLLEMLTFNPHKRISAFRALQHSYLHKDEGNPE
# Chain of CDK4 (P24385 whole entry partner): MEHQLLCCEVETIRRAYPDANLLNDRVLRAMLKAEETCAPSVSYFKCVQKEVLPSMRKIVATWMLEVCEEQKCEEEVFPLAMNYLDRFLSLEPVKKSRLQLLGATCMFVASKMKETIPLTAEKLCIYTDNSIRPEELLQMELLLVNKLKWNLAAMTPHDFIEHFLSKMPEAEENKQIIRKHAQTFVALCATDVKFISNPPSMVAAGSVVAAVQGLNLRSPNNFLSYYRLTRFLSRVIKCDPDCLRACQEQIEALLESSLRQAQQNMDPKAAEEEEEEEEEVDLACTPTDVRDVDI
row,SMILES,IC50 [µM]
1,CCC(C(=O)OC)n1ccc2cnc(Nc3ccc(N4CCN(C(C)=O)CC4)cc3)nc21 (centres unmarked) [Example 219],< 10
2,CCC(C(=O)OC)n1ccc2cnc(Nc3ccc(N4CCNCC4)cc3)nc21 (centres unmarked) [Example 221],< 10
3,CCC(C)n1ccc2cnc(Nc3ccc(N4CCN(C(C)=O)CC4)cc3)nc21 (centres unmarked) [Example 222],< 10
4,CCOC(=O)C(C(C)C)n1ccc2cnc(Nc3ccc(N4CCN(C(C)=O)CC4)cc3)nc21 (centres unmarked) [Example 223],< 10
5,CC(=O)N1CCN(c2ccc(Nc3ncc4ccn(C5CCCCC5=O)c4n3)cc2)CC1 (centres unmarked) [Example 226],< 10
6,CCC(C(N)=O)n1ccc2cnc(Nc3ccc(N4CCN(C(C)=O)CC4)cc3)nc21 (centres unmarked) [Example 227],< 10
7,CC(=O)N1CCN(c2ccc(Nc3ncc4ccn(C5CCOCC5)c4n3)cc2)CC1 [Example 228],< 10
8,CC(=O)N1CCN(c2ccc(Nc3ncc4ccn(C(C)CN(C)C)c4n3)cc2)CC1 (centres unmarked) [Example 229],< 10
9,CCC(C(N)=O)n1ccc2cnc(Nc3ccc(N4CCNCC4)cc3)nc21 (centres unmarked) [Example 234],< 10
10,c1cc(N2CCNCC2)ccc1Nc1ncc2ccn(C3CCOCC3)c2n1 [Example 235],< 10
11,CC(=O)N1CCN(c2ccc(Nc3ncc4ccn(C5CCC(C)CC5)c4n3)cc2)CC1 (centres unmarked) [Example 236],< 10
12,CCC(=O)N1CCN(c2ccc(Nc3ncc4ccn(C(CC)CC)c4n3)cc2)CC1 [Example 237],< 10
13,CC(=O)N1CCN(c2ccc(Nc3ncc4ccn(C5CCCC(C)C5)c4n3)cc2)CC1 (centres unmarked) [Example 241],< 10
14,CN(C)CC1CCC(n2ccc3cnc(Nc4ccc(N5CCNCC5)cc4)nc32)C1 (centres unmarked) [Example 249],< 10
15,CN1CCN(c2ccc(Nc3ncc4ccn(C5CCCC5)c4n3)nc2)CC1 [Example 255],< 10
16,Cc1cn(C2CCCC2)c2nc(Nc3ccc(N4CCCCC4)cc3)ncc12 [Example 278],< 10
17,Cc1cn(C2CCCC2)c2nc(Nc3ccc4[nH]ncc4c3)ncc12 [Example 281],< 10
18,Cc1cn(C2CCCC2)c2nc(Nc3ccc4[nH]ccc4c3)ncc12 [Example 282],> 10
19,Cc1cn(C2CCCC2)c2nc(Nc3ccc(N4CCNCC4)nc3)ncc12 [Example 283],< 10

row,SMILES,IC50 [µM]
1,Cc1cn(C2CCCC2)c2nc(Nc3ccc(N4CCNCC4)c(F)c3)ncc12 [Example 285],< 10
2,Cc1cn(C2CCCC2)c2nc(Nc3ccc(N4CCN(S(C)(=O)=O)CC4)cc3)ncc12 [Example 286],< 10
3,Cc1cn(C2CCCC2)c2nc(Nc3ccc(S(N)(=O)=O)cc3)ncc12 [Example 288],< 10
4,Cc1cn(C2CCCC2)c2nc(Nc3ccc(C(=O)N4CCOCC4)cc3)ncc12 [Example 292],< 10
5,Cc1cn(C2CCCC2)c2nc(Nc3ccncc3)ncc12 [Example 298],< 10
6,Cc1cn(C2CCCC2)c2nc(Nc3cccnc3)ncc12 [Example 300],< 10
7,Cc1cn(C2CCCC2)c2nc(Nc3ccc(N4CCOCC4)cn3)ncc12 [Example 302],< 10
8,Cc1cn(C2CCCC2)c2nc(Nc3ccc(N(C)C)cc3)ncc12 [Example 311],< 10
9,Cc1cn(C2CCCC2)c2nc(Nc3ccc(-n4ccnc4)cc3)ncc12 [Example 312],< 10
10,"Cc1cn(-c2ccccn2)c2nc(Nc3ccc(N4CCNCC4)cn3)ncc12 [Example 320, (5-Methyl-7-pyridin-2-yl-7H-pyrrolo[2,3-d]pyrimidin-2-yl)-(5-piperazin-1-yl-pyridin-2-yl)-amine]",< 10
11,Cc1cn(-c2nccs2)c2nc(Nc3ccc(N4CCNCC4)cn3)ncc12 [Example 321],< 10
12,Cc1cn(-c2cccnc2)c2nc(Nc3ccc(N4CCNCC4)cc3)ncc12 [Example 322],< 10
13,CCCCNC(=O)c1cc2cnc(Nc3ccc(N4CCNCC4)cc3)nc2n1C(CC)CC [Example 336],< 10
14,CCC(CC)n1c(C(=O)N2CCCC2)cc2cnc(Nc3ccc(N4CCNCC4)cc3)nc21 [Example 337],< 10
15,CCC(CC)n1c(C(=O)N2CCOCC2)cc2cnc(Nc3ccc(N4CCNCC4)cc3)nc21 [Example 343],< 10
16,CCC(CC)n1c(C(=O)NC2CCCC2)cc2cnc(Nc3ccc(N4CCNCC4)cc3)nc21 [Example 344],< 10
17,CCC(CC)n1c(C(=O)Nc2ccc(C(C)(C)C)cc2)cc2cnc(Nc3ccc(N4CCNCC4)cc3)nc21 [Example 349],< 10
18,CCC(CC)n1c(C(=O)Nc2ccc(CN3CCN(C)CC3)cc2)cc2cnc(Nc3ccc(N4CCNCC4)cc3)nc21 [Example 354],< 10
19,CCC(CC)n1c(CNC(C)C)cc2cnc(Nc3ccc(N4CCN(C(C)=O)CC4)cc3)nc21 [Example 366],< 10

row,SMILES,IC50 [µM]
1,CCC(CC)n1c(CNC(C)C)cc2cnc(Nc3ccc(N4CCNCC4)cc3)nc21 [Example 367],< 10
2,CCC(CC)n1c(CNc2cccnc2)cc2cnc(Nc3ccc(N4CCN(C(C)=O)CC4)cc3)nc21 [Example 369],< 10
3,CCC(CC)n1c(CNC2CCCC2)cc2cnc(Nc3ccc(N4CCN(C(C)=O)CC4)cc3)nc21 [Example 370],< 10
4,CCC(CC)n1c(CNc2ccon2)cc2cnc(Nc3ccc(N4CCN(C(C)=O)CC4)cc3)nc21 [Example 371],< 10
5,CCC(CC)n1c(CNc2cc(C)[nH]n2)cc2cnc(Nc3ccc(N4CCN(C(C)=O)CC4)cc3)nc21 [Example 372],< 10
6,"CCC(CC)n1c(C(=O)OC)cc2cnc(Nc3ccc(N4CCN(C(C)=O)CC4)cc3)nc21 [Example 373, 2-[4-(4-Acetyl-piperazin-1-yl)-phenylamino]-7-(1-ethyl-propyl)-7H-pyrrolo[2,3-d]pyrimidine-6-carboxylic acid methyl ester]",< 10
7,CCC(CC)n1c(COC)cc2cnc(Nc3ccc(N4CCN(C(C)=O)CC4)cc3)nc21 [Example 379],< 10
8,CCC(CC)n1c(COC)cc2cnc(Nc3ccc(C(=O)NC4CCCC4)cc3)nc21 [Example 380],< 10
9,CC(=O)c1c(C)c2cnc(Nc3ccc(N4CCNCC4)cn3)nc2n1C1CCOCC1 [Example 388],< 10
10,Cc1c(C(=O)N(C)C)n(C2CCCC2)c2nc(Nc3ccc(N4CCNCC4)cn3)ncc12 [Example 392],< 10
11,Cc1cc(-c2c(C)c3cnc(Nc4ccc(N5CCNCC5)cn4)nc3n2C2CCCC2)on1 [Example 405],< 10
12,Cc1cn(-c2ccccc2)c2nc(Nc3ccc(N4CCNCC4)cc3)ncc12 [Example 437],< 10
13,CCc1cn(C2CCCC2)c2nc(Nc3ccc(N4CCNCC4)cc3)ncc12 [Example 438],< 10
14,CC(C)c1cn(C2CCCC2)c2nc(Nc3ccc(N4CCNCC4)cn3)ncc12 [Example 440],< 10
15,CCC(CC)n1c(CNCc2ccco2)cc2cnc(Nc3ccc(N4CCN(C(C)=O)CC4)cc3)nc21 [Example 449],< 10
16,Cc1cn(C2CCCC2)c2nc(Nc3ccc(CN4CCN(C(=O)OC(C)(C)C)CC4)cc3)ncc12 [Example 462],< 10
17,Cc1cn(C2CCCC2)c2nc(Nc3ccc(CO)cc3)ncc12 [Example 466],< 10
18,CN(C)C(=O)c1cc2cnc(NCc3ccc(N4CCNCC4)cc3)nc2n1C1CCCC1 [Example 467],< 10

# Target: CDK2/Cyclin-A kinase complex (Homo sapiens, UniProt P24941)
# Assay: CDK2 IMAP fluorescence polarization assay
# Format: biochemical
# Settings: Table C; read-out: CDK2 IC50
# Source text: In order to test the CDK2 activity of the compounds of the invention, the CDK2 assay is a fluorescence polarization assay, where the enzyme is a purified active CDK2/Cyclin-A kinase complex and the substrate is a synthesized peptide derived from Histone H1. This assay utilizes the IMAP technology from Molecular Devices. The active CDK2/Cyclin-A complex phosphorylates the peptide substrate, which is conjugated with the TAMRA tag. The phosphorylated site is then recognized by a metal containing molecule that interacts with the TAMRA tag to induce a high fluorescence polarization. The compounds that inhibit the CDK2 kinase activity would inhibit the fluorescence output of the assay.
row,SMILES,IC50 [µM]
1,CC(=O)N1CCN(c2ccc(Nc3ncc4c(C)cn(C5CCCC5)c4n3)cc2)CC1,< 10
2,Cc1cn(C2CCCC2)c2nc(Nc3ccc(N4CCNCC4)cc3)ncc12,< 10
3,Cc1cn(C2CCCC2)c2nc(Nc3ccc(N4CCNCC4)cn3)ncc12,> 10
4,Cc1cn(C2CCCC2)c2nc(Nc3ccc(N4CCN(C)CC4)cc3)ncc12,> 10

# Same assay, conditions: Table E; read-out: CDK2cyA IMAP/IC50 [umol l − 1]
row,SMILES,IC50 [µM]
1,Cc1cn(C2CCCC2)c2nc(Nc3ccc4[nH]ccc4c3)ncc12 [Example 282],> 15

# Target: CDK4/Cyclin-D1 kinase complex (Homo sapiens, UniProt P11802)
# Sequence (P11802 whole entry): as the sequence (P11802 whole entry) above
# Sequence (P24385 whole entry partner): as the sequence (P24385 whole entry partner) above
# Assay: CDK4 ELISA based assay, Rb phosphorylation at Serine780
# Format: biochemical
# Settings: Table C
# Source text: The compounds that inhibit the CDK4 kinase activity would inhibit the signal output of the assay.
row,SMILES,IC50 [µM]
1,CC(=O)N1CCN(c2ccc(Nc3ncc4c(C)cn(C5CCCC5)c4n3)cc2)CC1,< 10
2,Cc1cn(C2CCCC2)c2nc(Nc3ccc(N4CCNCC4)cn3)ncc12,< 10
3,Cc1cn(C2CCCC2)c2nc(Nc3ccc(N4CCN(C)CC4)cc3)ncc12,< 10
4,CC(C)(C)OC(=O)N1CCN(c2ccc(Nc3ncc4ccn(C5CCCC5)c4n3)nc2)CC1,> 10
5,c1cc(Nc2ncc3ccn(C4CCCC4)c3n2)ncc1N1CCNCC1,> 10
6,CC(=O)N1CCN(c2ccc(Nc3ncc4ccn(C5CCCC5)c4n3)nc2)CC1,> 10
7,CN1CCN(c2ccc(Nc3ncc4ccn(C5CCCC5)c4n3)cc2)CC1,< 10
8,CC(=O)N1CCN(c2ccc(Nc3ncc4ccn(C5CCCC5)c4n3)cc2)CC1,> 10
9,Cc1cn(C2CC2)c2nc(Nc3ccc(N4CCNCC4)cc3)ncc12,< 10
10,c1cc(N2CCNCC2)ccc1Nc1ncc2ccn(C3CCCC3)c2n1,< 10
11,Cc1cn(C2CCCCC2)c2nc(Nc3ccc(N4CCNCC4)cn3)ncc12,< 10
12,Cc1cn(C2CC2)c2nc(Nc3ccc(N4CCNCC4)cn3)ncc12,< 10
